The % Inhibition is the drop in the measured response relative to a control, in per cent.

Strand notation (5' to 3'): a small letter for the sugar, then the base; units joined by * are phosphorothioate-linked, units joined directly phosphodiester-linked; [ ] holds rarer units or linkages, { } end groups; capitals alone tell only the bases. e = 2'-O-(2-methoxyethyl) (MOE); [5mC] = 5-methylcytosine; d = 2'-deoxy (DNA)

For this data set, the system named is human Factor 7 mRNA. The experiment in a line: Antisense inhibition of human Factor 7 with short (14-mer) oligonucleotides in HepB3 cells, electroporation 1,000 nM. The settings on record: electroporation, 1,000 nM antisense oligonucleotide, approximately 24 hours, Factor 7 mRNA relative to untreated control cells. Format: cell-based. In short, it runs like this: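 14-mer 2-10-2 MOE gapmers (full phosphorothioate, 5-methyl-C) electroporated at 1,000 nM into HepB3 cells at 20,000 cells/well. After ~24 h, Factor 7 mRNA by real-time RT-PCR, normalized to RiboGreen total RNA. Reported as % inhibition relative to untreated cells.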
Regarding “435833 (antisense eA*eG*dA*d[5mC]*dA*d[5mC]*dT*dT*dG*dA*dG*dA*eG*e[5mC]) [compound 435833]”, the “% Inhibition” value is 24%.
To “435803 (antisense eG*eA*dG*dA*dA*dT*dT*dG*d[5mC]*d[5mC]*d[5mC]*dA*eG*eG) [compound 435803]” belongs 0%.
To “435767 (antisense e[5mC]*eA*d[5mC]*d[5mC]*dA*dA*dG*dT*dT*dT*dA*dT*eG*eG) [compound 435767]” belongs 0%.
In the case of “435716 (antisense eT*eT*dT*dT*dG*d[5mC]*dA*dG*d[5mC]*d[5mC]*dA*d[5mC]*eT*e[5mC]) [compound 435716]”, the “% Inhibition” value came out at 22%.
To “435788 (antisense e[5mC]*e[5mC]*dT*dG*dT*dG*dA*dG*dT*dG*dT*dG*eA*eG) [compound 435788]” belongs 20%; to “435718 (antisense eG*e[5mC]*dT*d[5mC]*dG*d[5mC]*dA*dG*dG*dA*dG*dG*eA*e[5mC]) [compound 435718]”, 26%; to “435698 (antisense e[5mC]*e[5mC]*dT*dT*dG*d[5mC]*dA*dG*dG*dA*dG*dT*e[5mC]*e[5mC]) [compound 435698]”, 61%.
With “435780 (antisense eG*eG*dA*dG*dG*dG*dA*d[5mC]*dG*dA*d[5mC]*d[5mC]*eT*eT) [compound 435780]”, the “% Inhibition” value amounted to 28%.
For “435746 (antisense eA*eT*dT*dG*dA*d[5mC]*dA*dA*dG*dG*dG*d[5mC]*eT*eG) [compound 435746]” the value was 32%; for “435845 (antisense eG*e[5mC]*dT*d[5mC]*dA*dT*dG*dG*d[5mC]*dA*dG*dA*e[5mC]*eA) [compound 435845]”, 21%.
Take “435688 (antisense eA*e[5mC]*d[5mC]*dA*d[5mC]*dA*dT*dG*dG*dT*d[5mC]*dA*eG*eT) [compound 435688]”: the “% Inhibition” value came to 0%.
Regarding “435482 (antisense eT*eG*dG*dG*dT*d[5mC]*dA*dT*d[5mC]*dA*dG*d[5mC]*e[5mC]*eG) [compound 435482]”, the “% Inhibition” value was determined as 62%.
As for “435812 (antisense eG*e[5mC]*dT*dG*dA*dG*d[5mC]*dA*dG*dA*dG*dA*eT*e[5mC]) [compound 435812]”, the “% Inhibition” value is 35%.
“435805 (antisense eT*eG*dA*dA*dT*dT*dA*d[5mC]*dT*dG*dA*dA*e[5mC]*e[5mC]) [compound 435805]”: the “% Inhibition” value was 0%.
Regarding “435672 (antisense eA*e[5mC]*d[5mC]*d[5mC]*dA*dG*dA*dT*dG*dG*dT*dG*eT*eT) [compound 435672]”, the “% Inhibition” value amounted to 12%.
With “435728 (antisense eA*e[5mC]*dA*d[5mC]*dA*dT*dG*dG*dA*dG*dT*d[5mC]*eA*eG) [compound 435728]”, the “% Inhibition” value amounted to 16%.
Take “435685 (antisense eA*eG*dG*dA*d[5mC]*d[5mC]*dA*d[5mC]*dG*dG*dG*d[5mC]*eT*eG) [compound 435685]”: the “% Inhibition” value is recorded as 40%.
As to “435785 (antisense eA*eG*d[5mC]*dT*dT*d[5mC]*dT*d[5mC]*dA*d[5mC]*d[5mC]*dA*e[5mC]*eG) [compound 435785]”, the “% Inhibition” value was 46%.
On to “435835 (antisense eT*eT*dA*dT*dT*dT*dG*dG*dG*d[5mC]*dA*dT*eG*eG) [compound 435835]”, for which the “% Inhibition” value is reported as 7%.
To “435668 (antisense eT*eG*d[5mC]*d[5mC]*dA*dT*dG*dG*dA*d[5mC]*dA*d[5mC]*eT*e[5mC]) [compound 435668]” belongs 75%; to “435751 (antisense e[5mC]*eT*dT*dG*d[5mC]*d[5mC]*dA*dG*dG*dT*d[5mC]*d[5mC]*eT*e[5mC]) [compound 435751]”, 28%.
Turning to “435830 (antisense eT*eG*dA*dT*dT*dT*dT*dG*d[5mC]*dA*dA*dA*eG*eA) [compound 435830]”, the “% Inhibition” value was found to be 0%.
